The values that follow come from PubChem BioAssay AID2165 (The Scripps Research Institute Molecular Screening Center, 2009).

The assay addresses Tyrosine-protein kinase JAK2 (Homo sapiens) (UniProt O60674). As to the kind of experiment: JAK2V617F project follow-up: kinase, reporter, cytotoxicity – HEL and Ba/F3 cells, late-stage follow-up (AID 2165). The conditions noted are these: JAK2V617F panel: kinase, IRF1 reporter.

Values joined by “and” are separate entries in the source; they are usually repeats but may differ in a detail not shown here. Identical values can stand only once. Active and inactive are the calls of the source. Rule as the data show it: active = IC50 below about 9 µM; inactive = the rest. Where only a bound is given, the exact number is not on record here.

Tyrosine-protein kinase JAK2 (Homo sapiens), sequence (O60674 whole entry, looked up, change not shown): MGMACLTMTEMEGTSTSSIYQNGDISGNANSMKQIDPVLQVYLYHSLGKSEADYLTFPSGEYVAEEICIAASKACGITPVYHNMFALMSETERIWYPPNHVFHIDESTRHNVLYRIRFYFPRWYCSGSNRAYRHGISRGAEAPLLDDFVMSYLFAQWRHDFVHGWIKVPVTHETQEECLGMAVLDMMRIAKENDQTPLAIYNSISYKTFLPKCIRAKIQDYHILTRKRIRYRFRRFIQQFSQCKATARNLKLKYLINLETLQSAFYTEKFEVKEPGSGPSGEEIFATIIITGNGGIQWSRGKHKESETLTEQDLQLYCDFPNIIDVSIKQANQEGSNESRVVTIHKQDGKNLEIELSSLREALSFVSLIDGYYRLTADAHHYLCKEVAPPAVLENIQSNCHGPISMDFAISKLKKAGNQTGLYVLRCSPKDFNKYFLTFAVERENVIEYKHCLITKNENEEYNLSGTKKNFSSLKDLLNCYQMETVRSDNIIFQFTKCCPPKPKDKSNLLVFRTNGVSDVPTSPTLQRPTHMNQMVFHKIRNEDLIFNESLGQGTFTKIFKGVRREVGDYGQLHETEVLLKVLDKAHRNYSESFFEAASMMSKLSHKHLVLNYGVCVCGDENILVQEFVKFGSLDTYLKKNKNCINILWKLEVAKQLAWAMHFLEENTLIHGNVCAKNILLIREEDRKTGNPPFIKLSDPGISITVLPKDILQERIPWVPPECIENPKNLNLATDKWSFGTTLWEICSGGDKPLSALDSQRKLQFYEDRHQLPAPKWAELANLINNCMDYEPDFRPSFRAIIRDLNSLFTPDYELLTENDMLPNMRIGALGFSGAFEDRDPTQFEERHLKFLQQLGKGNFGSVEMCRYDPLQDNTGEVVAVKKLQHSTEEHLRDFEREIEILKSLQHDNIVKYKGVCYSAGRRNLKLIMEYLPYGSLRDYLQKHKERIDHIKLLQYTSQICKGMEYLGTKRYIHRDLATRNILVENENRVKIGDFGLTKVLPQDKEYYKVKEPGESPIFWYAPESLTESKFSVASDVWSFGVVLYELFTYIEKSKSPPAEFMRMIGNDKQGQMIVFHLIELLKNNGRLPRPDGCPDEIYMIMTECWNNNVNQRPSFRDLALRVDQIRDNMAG

In general, IC50 refers to the midpoint of a concentration-inhibition curve. Consider `Cc1[nH]c(=O)c(C(=O)C=Cc2ccc(C(C)C)cc2)c2c1CCCC2`, for which the IC50 reads like this: (Ba/F3, irf1 reporter) 0.84 µM; (HEL, irf1 reporter) 6.33 µM; (JAK2V617F) 2.29 µM. Take `COc1cccc(F)c1C(C[N+](=O)[O-])c1c(N)n(C)c(=O)n(C)c1=O` (configuration not stated): the IC50 by setting is: (Ba/F3, irf1 reporter) 5.77 µM; (HEL, irf1 reporter) 9.37 µM. Taken in the same sequence, the figures for `COC(=O)/C=C/c1ccc(OC(=O)OC)c(OC(=O)OC)c1` were 12.6 µM and 27.7 µM.

As for `CCc1cccc(Nc2ncnc3cc(OCCOC)c(OCCOC)cc23)c1`, the IC50 (HEL, irf1 reporter) was > 40 µM (inactive) and the IC50 (JAK2V617F) is > 40 µM (inactive). Take `Nc1nc(CCl)nc(N(c2ccccc2)c2ccccc2)n1`: the IC50 is, setting by setting: (Ba/F3, irf1 reporter) 14.3 µM; (HEL, irf1 reporter) 2.64 µM. Taken in the same sequence, the figures for `[O-][N+]1=c2ccc(Nc3ccccc3)cc2=NC12CCCCC2` were 5.15 µM and 7.02 µM. Take `Cc1nnc(NC(=O)COc2ccccc2)s1`: the IC50 is, setting by setting: (HEL, irf1 reporter) > 40 µM (inactive); (JAK2V617F) > 40 µM (inactive). Take `C/C(=C\c1ccc(N(C)C)cc1)[N+](=O)[O-]`: the IC50 runs as follows: (Ba/F3, irf1 reporter) 2.65 µM; (HEL, irf1 reporter) 4.29 µM.

As for `O=C(COc1ccccc1)Nc1ncccn1`, the IC50 is, setting by setting: (HEL, irf1 reporter) > 40 µM (inactive); (JAK2V617F) > 40 µM (inactive). In the case of `CN(c1ccccc1)S(=O)(=O)c1cccc(C(=O)NCCc2ccc(O)c(O)c2)c1`, the IC50 runs as follows: (Ba/F3, irf1 reporter) 3.02 µM; (HEL, irf1 reporter) 2.97 µM.

For the compound `CCC(C)c1ccc(OCC(=O)Nc2cc(C)ccc2O)cc1` (configuration not stated), the IC50 (JAK2V617F) was 33.2 µM. `Cc1[nH]c2ccccc2c(=O)c1C(=O)/C=C/c1ccccc1`: the IC50 by setting is: (Ba/F3, irf1 reporter) > 40 µM (inactive); (HEL, irf1 reporter) 3.98 µM.

Regarding `Cc1cccc(OCC(=O)Nc2cc(C)ccc2O)c1`, the IC50 is 3.94 µM (Ba/F3, irf1 reporter) and > 40 µM (inactive) (HEL, irf1 reporter).

`CNC(=O)c1nnsc1S(=O)c1ccc(Cl)cc1` (configuration not stated): the IC50 was 0.199 µM (Ba/F3, irf1 reporter) and 12.1 µM (HEL, irf1 reporter). With `COc1cc2ncnc(Sc3ccc(Cl)cc3)c2cc1OC`, the IC50 by setting is: (HEL, irf1 reporter) > 40 µM (inactive); (JAK2V617F) > 40 µM (inactive). Regarding `O=C(CSc1nnnn1-c1ccc(F)cc1)c1ccc(O)c(O)c1`, the IC50 (Ba/F3, irf1 reporter) is 12.4 µM and the IC50 (HEL, irf1 reporter) is 16.5 µM. Taken in the same sequence, the figures for `O=C1C=CCC(/C=C/c2ccccc2)O1` (configuration not stated) were 7.41 µM and 2.05 µM. With `Cc1cc2ncc(-c3ccc(O)c(O)c3)nc2cc1C`, the concentration for half-maximal inhibition (IC50) was 0.104 µM (Ba/F3, irf1 reporter); 3.19 µM (HEL, irf1 reporter); 0.84 µM (JAK2V617F). `Cc1ccc(O)c(NC(=O)COc2ccc(Cl)cc2)c1`: where the note is “JAK2V617F”, the IC50 is 1.51 µM. For `COc1cc2ncnc(NC3CCCCC3)c2cc1OC`, the IC50 (HEL, irf1 reporter) was 5.22 µM and the IC50 (JAK2V617F) is > 40 µM (inactive).

Regarding `CCCOc1ccc(C(=O)C(CN2CCOCC2)c2ccccc2)cc1` (configuration not stated), the IC50 was > 40 µM (inactive) (Ba/F3, irf1 reporter) and 11.4 µM (HEL, irf1 reporter). Regarding `Cc1cc(C)c(C(=O)/C=C/c2ccccc2F)c(=O)[nH]1`, the IC50 (Ba/F3, irf1 reporter) was 24 µM; the IC50 (HEL, irf1 reporter) is 1.17 µM; the IC50 (JAK2V617F) was 0.71 µM. Turning to `Cc1oc2c(O)c(O)ccc2c(=O)c1-c1cnn(-c2ccccc2)c1`, the IC50 reads like this: (Ba/F3, irf1 reporter) 12.8 µM; (HEL, irf1 reporter) 8.52 µM. As to `CC1CCCN(CCCNC(=O)c2cc3c(Cl)nc4ccccc4c3s2)C1` (configuration not stated), the concentration for half-maximal inhibition (IC50) was 11.6 µM (Ba/F3, irf1 reporter) and > 40 µM (inactive) (HEL, irf1 reporter). Turning to `Cc1ccc(O)c(NC(=O)COc2cccc(C)c2C)c1`, the IC50 (JAK2V617F) was > 40 µM (inactive).

For the compound `COc1ccc([N+](=O)[O-])c(S(=O)(=O)c2ccc(Cl)cc2)n1`, the IC50 (Ba/F3, irf1 reporter) was 0.395 µM and the IC50 (HEL, irf1 reporter) was 10.4 µM. Taken in the same sequence, the figures for `O=C(/C=C/c1ccc(O)c(O)c1)c1ccc(S(=O)(=O)N2CCCCCC2)cc1` were 2.33 µM and > 40 µM (inactive). As for `N#CC(C#N)=Cc1cc(O)c(O)c(I)c1`, the IC50 reads like this: (Ba/F3, irf1 reporter) 5.01 µM; (HEL, irf1 reporter) 19.6 µM; (JAK2V617F) 8.82 µM. With `O=C(C=C=Nc1ccccc1)C(=O)N=C=Cc1ccccc1`, the half-maximal inhibitory concentration (IC50) was 1.31 µM (Ba/F3, irf1 reporter) and 14.2 µM (HEL, irf1 reporter). Taken in the same sequence, the figures for `COc1cc(/C=C2\COC/C(=C\c3ccc(O)c(OC)c3)C2=O)ccc1O` were 1.99 µM and 7.86 µM.

`Cc1[nH]c(=O)c(C(=O)/C=C/c2ccccc2F)c2c1CCCC2`: the half-inhibitory concentration (IC50) by setting is: (Ba/F3, irf1 reporter) 6.42 µM and 1.07 µM; (HEL, irf1 reporter) 3.87 µM and 0.79 µM; (JAK2V617F) 0.45 µM. For `O=S(=O)(c1cccs1)N1CCN(c2ccc(O)cc2)CC1`, the IC50 is 7.02 µM (Ba/F3, irf1 reporter) and 20.9 µM (HEL, irf1 reporter). For the compound `Cc1ccc2nc(C)cc(Nc3ccc([N+](=O)[O-])cc3)c2c1`, the IC50 (Ba/F3, irf1 reporter) is 3.43 µM and the IC50 (HEL, irf1 reporter) was 5.98 µM.

In the case of `N#Cc1ccccc1NC(=O)COc1ccc2c(c1)OCO2`, the IC50 was > 40 µM (inactive) (HEL, irf1 reporter) and > 40 µM (inactive) (JAK2V617F). Take `Cc1nc2c(=O)n(C)c(=O)n(C)c2nc1Cl`: the IC50 was 1.97 µM (Ba/F3, irf1 reporter) and 15.7 µM (HEL, irf1 reporter). For `Cc1[nH]c(=O)c(C(=O)/C=C/c2ccccc2)c2c1CCCC2`, the IC50 is > 40 µM (inactive) (Ba/F3, irf1 reporter); 2.03 µM (HEL, irf1 reporter); 1.15 µM (JAK2V617F). Take `COc1ccc(-c2cc(-c3cc(C)ccc3O)[nH]n2)cc1`: the IC50 by setting is: (Ba/F3, irf1 reporter) 7.06 µM; (HEL, irf1 reporter) 1.82 µM.

With `CCCn1c(CN(C)Cc2ccccc2)nc2c1c(=O)n(C)c(=O)n2C`, the IC50 is 6.43 µM (Ba/F3, irf1 reporter) and > 40 µM (inactive) (HEL, irf1 reporter). Taken in the same sequence, the figures for `Cc1cccc(CS(=O)(=O)c2nnc([C@H](Cc3ccccc3)NC(=O)OC(C)(C)C)o2)c1` were 1.39 µM and 11.6 µM.

With `Cc1ccc(O)c(NC(=O)COc2ccc(I)cc2)c1`, the IC50 (JAK2V617F) was 0.0268 µM.

In the case of `CCCCCCN(C(=O)CCl)c1ccccc1`, the half-maximal inhibitory concentration (IC50) is 3.62 µM (Ba/F3, irf1 reporter) and 8.71 µM (HEL, irf1 reporter).

On to `Cc1cc2[nH]c3c(c[n+](C)c4ccccc34)c2cc1C`, for which the half-inhibitory concentration (IC50) runs as follows: (Ba/F3, irf1 reporter) 7.72 µM; (HEL, irf1 reporter) 7.35 µM. In the case of `Cc1cccc(OCC(=O)Nc2ccc(O)cc2)c1`, the IC50 (JAK2V617F) was > 40 µM (inactive). Take `Cc1[nH]c(=O)c(C(=O)C=Cc2ccc(I)cc2)c2c1CCCC2`: the IC50 by setting is: (Ba/F3, irf1 reporter) 0.82 µM; (HEL, irf1 reporter) 11.2 µM; (JAK2V617F) > 40 µM (inactive).

On to `COc1ccc(Cl)cc1NC(=O)NC(C)c1ccncc1` (configuration not stated), for which the IC50 was > 40 µM (inactive) (HEL, irf1 reporter) and > 40 µM (inactive) (JAK2V617F).

Consider `O=C(Nc1cccc(NC(=O)c2cccs2)c1)c1ccc([N+](=O)[O-])o1`, for which the IC50 is 4.5 µM (Ba/F3, irf1 reporter) and 3.31 µM (HEL, irf1 reporter). Taken in the same sequence, the figures for `CC1CCN(CCCNC(=O)c2cc3c(Cl)nc4ccccc4c3s2)CC1` were 9.98 µM and > 40 µM (inactive). Taken in the same sequence, the figures for `COc1ccc(OC)c(NS(=O)(=O)c2ccc(SC)cc2)c1` were 22.9 µM and > 40 µM (inactive). Regarding `Cc1ccc(O)c(NC(=O)COc2ccccc2C)c1`, the IC50 (JAK2V617F) is > 40 µM (inactive).

In the case of `Cc1ccc(O)c(NC(=O)COc2ccc(F)cc2)c1`, the IC50 (JAK2V617F) was 21.8 µM.

Consider `Clc1ccc(-n2nnnc2Sc2ncnc3sccc23)cc1`, for which the concentration for half-maximal inhibition (IC50) is 1.19 µM (Ba/F3, irf1 reporter) and 23.3 µM (HEL, irf1 reporter).

With `CS(=O)(=O)c1nc(-c2ccco2)cc(C(F)(F)F)n1`, the IC50 by setting is: (Ba/F3, irf1 reporter) 0.869 µM; (HEL, irf1 reporter) 7.42 µM. Taken in the same sequence, the figures for `COc1ccc(Nc2ccc3c(c2)=NC2(CCCCC2)[N+]=3[O-])cc1` were 5.6 µM and 5.14 µM. As for `Cc1ccccc1CS(=O)(=O)c1nnc([C@H](CC(C)C)NC(=O)OC(C)(C)C)o1`, the IC50 reads like this: (Ba/F3, irf1 reporter) 1.96 µM; (HEL, irf1 reporter) 12.1 µM. Taken in the same sequence, the figures for `CCOc1ccc(C(=O)C(CN2CCOCC2)c2ccccc2)cc1` (configuration not stated) were 16.6 µM and 11 µM. Consider `c1ccc2c(c1)CSc1sccc1C2=C1CCNCC1`, for which the IC50 (Ba/F3, irf1 reporter) was 5.89 µM and the IC50 (HEL, irf1 reporter) is > 40 µM (inactive). `C/C(=C\c1ccccc1F)C(=O)c1c(C)cc(C)[nH]c1=O`: the IC50 is, setting by setting: (Ba/F3, irf1 reporter) > 40 µM (inactive); (HEL, irf1 reporter) 3.24 µM; (JAK2V617F) > 40 µM (inactive).

In the case of `CCCc1nc2ccccc2c(=O)n1/N=C/c1ccc(O)c(O)c1`, the IC50 runs as follows: (Ba/F3, irf1 reporter) 2.13 µM; (HEL, irf1 reporter) 13.1 µM.

On to `N#CC(=Cc1ccc(O)c(O)c1)C(=S)NCc1ccccc1`, for which the half-maximal inhibitory concentration (IC50) was 0.62 µM (Ba/F3, irf1 reporter); > 40 µM (inactive) (HEL, irf1 reporter); 1.92 µM (JAK2V617F). For the compound `COc1cc2ncnc(Nc3cccc(Cl)c3)c2cc1OC`, the IC50 by setting is: (HEL, irf1 reporter) > 40 µM (inactive); (JAK2V617F) > 40 µM (inactive).

Take `O=C(CCl)NC(=O)NC12CC3CC(CC(C3)C1)C2`: the IC50 runs as follows: (Ba/F3, irf1 reporter) 3.56 µM; (HEL, irf1 reporter) 7.9 µM. As for `Cc1cccc(OCC(=O)Nc2cc(C)c(C)cc2O)c1`, the IC50 (JAK2V617F) is > 40 µM (inactive). On to `O=C1/C(=C/c2ccc(O)c(O)c2)SC(=S)N1Nc1ccccc1`, for which the IC50 is 4.04 µM (Ba/F3, irf1 reporter) and 10.2 µM (HEL, irf1 reporter). Taken in the same sequence, the figures for `Cc1cccc(Nc2nc(N)nc(CCl)n2)c1C` were 14.9 µM and 1.17 µM. For the compound `COc1ccccc1OCC(=O)Nc1cc(C)ccc1O`, the IC50 (JAK2V617F) was 0.0392 µM. The same measure, in the same setting: as for `Cc1ccc(O)c(NC(=O)COc2ccccc2Cl)c1`, the figure is 0.0247 µM. As for `COCCOc1cc2ncnc(Nc3cccc(C#Cc4ccc(O)cc4)c3)c2cc1OCCOC`, the IC50 was 0.0948 µM (HEL, irf1 reporter) and 2.74 µM (JAK2V617F). With `O=C(Nc1cccc2c1[nH]c1ccccc12)C(F)(F)F`, the half-maximal inhibitory concentration (IC50) runs as follows: (Ba/F3, irf1 reporter) 18.9 µM; (HEL, irf1 reporter) 3.68 µM. For `O=C(CCl)N=c1sccn1Cc1cccc2ccccc12`, the concentration for half-maximal inhibition (IC50) reads like this: (Ba/F3, irf1 reporter) 7.24 µM; (HEL, irf1 reporter) 0.202 µM. As to `COc1cc2ncnc(N[C@H](C)c3ccccc3)c2cc1OC`, the IC50 runs as follows: (HEL, irf1 reporter) 13.1 µM; (JAK2V617F) 3.18 µM. For the compound `O=C(CCl)N=c1sccn1Cc1ccc(Cl)cc1Cl`, the IC50 is, setting by setting: (Ba/F3, irf1 reporter) 6.08 µM; (HEL, irf1 reporter) 2.22 µM.

With `Cc1cc(C)cc(NC(=O)COc2cccc(C)c2)c1`, under “JAK2V617F”, the IC50 was > 40 µM (inactive).
